Laboratory results published in a compilation of properties of binary mixtures (doi:10.1021/acs.jced.3c00537).

Assay: xn = mol fraction of the nth substance listed
Settings: 100 kPa

CC[n+]1ccn(C)c1.COP(=O)([O-])OC + CCO
viscosity [mPa·s]
Settings | 293.15 K | 298.15 K | 303.15 K | 308.15 K | 313.15 K | 318.15 K | 323.15 K | 328.15 K | 333.15 K | 338.15 K
x1 = 0.1004 | 3.47 | 3.1 | 2.77 | 2.5 | 2.28 | 2.09 | 1.95 | 1.85 | – | 1.55
x1 = 0.2032 | 7.38 | 6.54 | 5.8 | 5.17 | 4.66 | 4.26 | 3.94 | 3.61 | 3.26 | 3.07
x1 = 0.3007 | 14.45 | 12.4 | – | 9.4 | – | – | 6.75 | 6.22 | 5.73 | 5.32
x1 = 0.3994 | 26.4 | 22.01 | 18.49 | 15.67 | 13.43 | 11.74 | 10.36 | 9.26 | 8.31 | 7.61
x1 = 0.5013 | 46.78 | – | 30.72 | 25.48 | 21.4 | 18.27 | – | 13.67 | 11.97 | 10.68
x1 = 0.5994 | 79.2 | 61.56 | – | 38.81 | – | 26.33 | 22.2 | 19.04 | 16.4 | 14.35
x1 = 0.7006 | – | – | 72.82 | 57.48 | 45.56 | 36.84 | 30.39 | – | – | 18.37
x1 = 0.8011 | 176.7 | – | 106.5 | 80.4 | 62.91 | 48.34 | – | 31.5 | 26.15 | 21.94
x1 = 0.8988 | 241 | 192.2 | 140.5 | 106.5 | 78.6 | 62.43 | 49.31 | 39.47 | 32.04 | –
x1 = 1 | 348 | 247 | 178.9 | – | – | 79.1 | 62.91 | 50.39 | – | 33.59

COP(=O)([O-])OC.Cn1cc[n+](C)c1 + CCO
viscosity [mPa·s]
Settings | 293.15 K | 298.15 K | 303.15 K | 308.15 K | 313.15 K | 318.15 K | 323.15 K | 328.15 K | 333.15 K | 338.15 K
x1 = 0.1005 | – | 2.91 | – | 2.38 | 2.15 | 1.9 | 1.74 | 1.54 | – | 1.22
x1 = 0.2006 | 6.54 | 5.92 | – | 4.71 | 4.29 | 3.89 | 3.5 | 3.19 | 2.93 | 2.67
x1 = 0.3005 | 13.17 | 11.4 | – | 8.77 | 7.8 | – | – | 5.87 | – | 5.14
x1 = 0.4031 | 24.71 | 20.72 | 17.29 | 14.75 | – | 11.17 | 9.96 | 8.98 | 8.12 | 7.43
x1 = 0.4996 | 42.18 | 33.84 | 27.62 | 22.9 | 19.31 | 16.65 | 14.39 | – | 11.07 | –
x1 = 0.6043 | 70.07 | 54.83 | 43.41 | 35.07 | 28.85 | 24.13 | 20.39 | 17.54 | 15.17 | 13.3
x1 = 0.7009 | 111.3 | – | 64.5 | 50.89 | 40.71 | – | – | 22.99 | – | 16.89
x1 = 0.797 | – | 118.8 | 89.5 | 69.03 | – | 43.34 | – | – | 24.3 | 20.61
x1 = 0.8995 | 235.4 | – | 125.2 | – | 72.72 | 58.89 | – | 36.94 | – | 25.28
x1 = 1 | 331 | 232.5 | 165.8 | – | 93.5 | – | 57.09 | 45.49 | 36.7 | 30.05

CCO + COP(=O)([O-])OC.Cn1cc[n+](C)c1
x2 = 0
Settings | viscosity [mPa·s]
293.15 K | 1.18
303.15 K | 0.976
313.15 K | 0.815
318.15 K | 0.75
323.15 K | 0.694
333.15 K | 0.603
338.15 K | 0.564

CCO + CC[n+]1ccn(C)c1.COP(=O)([O-])OC
x2 = 0
Settings | viscosity [mPa·s]
293.15 K | 1.18
303.15 K | 0.976
308.15 K | 0.89
313.15 K | 0.815
318.15 K | 0.75
323.15 K | 0.694
333.15 K | 0.603
338.15 K | 0.564
